Assays:
[1] = tested on: sleep disorders including PLMS; experiment: Example 1, Subject 1: person with sleep disorders including PLMS; assay type: in vivo, human; conditions: Subject 1, history before the GTN patch
Experimental: The subject was a person with a history of sleep disorders including PLMS for at least 4 years. Over this period the subject had five visits to a sleep laboratory, which confirmed their diagnosis of PLMS, and through which various treatments were devised. These included drug therapies with PAXIL/WELLBUTRIN, CLOMIPRAMINE, IMOVANE, DESIPPAMINE, ZOLOFT, TEMAZEPAM, TRYPTAN, and FLUVOXAMINE.
At this point, the subject was administered a 1.65 cm^2 GTN patch as described above in reference to Table 4. The patch was applied just before retiring at night. This was repeated for three consecutive nights. […] On the fourth night, the subject applied a 1.1 cm^2 GTN patch, and on the fifth night, a 0.825 cm^2 GTN patch.

[2] = Rate of drug delivery (release) from transdermal nitroglycerin patches; conditions: after 8 hours, 0.83 cm^2 patch
Experimental: (§1) 3M MINITRAN transdermal nitroglycerin patches of 10 cm^2 and 20 cm^2 areas deliver plasma levels of 102 pg/mL and between 129 pg/mL and 310 pg/mL, respectively. The 3.3 cm^2 patch, with a total loading of 9 mg of nitroglycerin in each patch, has a mean rate of drug delivery of about […]. The two smaller patches (1.65 cm^2 and 0.825 cm^2) used in the studies described herein had areas of one half and one fourth the 3.33 cm^2 patch. Based on the ratios of patch surface area and assuming linearity in the rates of drug delivery, the estimated rates of delivery and extrapolated values of plasma levels of nitroglycerin for the three low or microdose patches are given in Table 1.
Nitroglycerin for the treatment of RLS, PLMS and sleep symptoms was provided in single dose transdermal patches packaged in individual foil pouches. Each single dose transdermal patch has a surface area of 0.83 cm^2, contains 2.25 mg of nitroglycerin, and releases the nitroglycerin at a rate of 0.025 mg/hour (0.75 mg/cm^2/24 hours). After 8 hours 85% of the nitroglycerin remains entrained in the adhesive substrate of the transdermal patch.

[3] = Plasma levels of nitroglycerin delivered from transdermal patches; assay type: in vivo
Experimental: as §1

| Structure (SMILES) | success of earlier drug therapies in treating the symptoms of the sleep disorder [1] | also measured |
| --- | --- | --- |
| CN(C)CCCN1c2ccccc2CCc2ccc(Cl)cc21 [CLOMIPRAMINE] | None of the drug therapies were successful | – |
| CNCCCN1c2ccccc2CCc2ccccc21 [DESIPPAMINE] | None of the drug therapies were successful | – |
| COCCCC/C(=N\OCCN)c1ccc(C(F)(F)F)cc1 [FLUVOXAMINE] | None of the drug therapies were successful | – |
| CN1CCN(C(=O)OC2c3nccnc3C(=O)N2c2ccc(Cl)cn2)CC1 (centres unmarked) [IMOVANE] | None of the drug therapies were successful | – |
| O=[N+]([O-])OCC(CO[N+](=O)[O-])O[N+](=O)[O-] [Nitroglycerin, nitroglycerin] | – | nitroglycerin remaining entrained in the adhesive substrate of the patch [2]: 85%; Plasma Level ([3]; 0.825 cm^2 patch, extrapolated from larger-size patches assuming linearity): 9^3 pg/mL; Plasma Level ([3]; 1.65 cm^2 patch, extrapolated from larger-size patches assuming linearity): 17^3 pg/mL; Plasma Level ([3]; 3.33 cm^2 patch, extrapolated from larger-size patches assuming linearity): 34^3 pg/mL; Plasma Level ([3]; 10 cm^2 patch): 102^1 pg/mL |
| CN1C(=O)C(O)N=C(c2ccccc2)c2cc(Cl)ccc21 (centres unmarked) [TEMAZEPAM, temazepam] | None of the drug therapies were successful | – |
| CN[C@H]1CC[C@@H](c2ccc(Cl)c(Cl)c2)c2ccccc21 [ZOLOFT] | None of the drug therapies were successful | – |

Reference: US6586478B2, “Methods and compositions for improving sleep” (Cellegy Canada, priority 2000, dated 2003)
